US9051417B2, “Method for solubilizing carboxylic acid-containing compound in hydrocarbon solvent” (Dow Global Technologies LLC, priority 2013, dated 2015)

Assay: Solubility measurement of acid chlorides containing one carboxylic acid moiety in hydrocarbon solvents with and without trialkylphosphate additives (saturated solutions, proton NMR)
Assay type: physicochemical
Conditions: saturated solution
Excerpt: Many embodiments of the invention have been described and in some instances certain embodiments, selections, ranges, constituents, or other features have been characterized as being “preferred.” Characterizations of “preferred” features should in no way be interpreted as deeming such features as being required, essential or critical to the invention. For purposes of this description, the terms “acyl halide” and “acid halide” have the same meaning. While much of the description has focused upon acyl chlorides, non-chloride halides are also included. The term “solubility limit” refers to the point at which no additional amount of a constituent, (e.g. water, reaction product, hydrocarbon reactant) is miscible or dissolvable with the hydrocarbon solvent or solution, as measured at 20° C. and 101 kPa. Unless otherwise stated, all solubility related parameters are determined at 20° C. and 101 kPa.
Solubility measurement of acid chlorides containing one carboxylic acid moiety in hydrocarbon solvents with and without solubility enhancing additives:
Saturated solutions of sample acid chlorides containing carboxylic acid moieties were prepared in hydrocarbon solvents with and without the presence of trialkylphosphate additives by adding more sample than will dissolve in the solvent and decanting the saturated solvent from the undissolved precipitate. The saturated solutions were evaluated by proton NMR. Deuterated Isopar L is not commercially available, thus all spectra were acquired in the unlocked condition using regular Isopar L. Because of the very high proton concentration in running a non-deuterated solvent, 60° pulse and minimum receiver gain were used to avoid receiver overflow. A relaxation delay of 8 seconds was used for complete signal recovery between scans. The spectral width was set to 20 ppm and the center of the spectrum was set to 5 ppm. Depending on the concentrations of the species of interest, 64-256 scans were used for signal averaging.
The area of the Isopar L peaks between 0.75 and 2.0 ppm were measure and divided by 26 (which represents the average H's present in Isopar L, assuming a molecular formula of C12H26) and multiplied by 170.33, the formula weight of C12H26. The peak area of the aromatic acid chlorides containing carboxylates are between 8.9-9.2 ppm and are well resolved from the Isopar solvent. The integration of one of the assigned peaks (for example, the triplet of mono-hydrolyzed TMC at 9.0 ppm represents a single proton) was used to determine the relative weight of the sample in the Isopar L solvent. The integration is divided by the number of protons it represents and multiplied by the formula weight of the compound it represents (for example, the triplet of mono-hydrolyzed TMC at 9.0 ppm would be divided by 1 and multiplied by 247.03 g/mol). The wt % of mono-hydrolyzed TMC in the saturated solution is determined by dividing the value obtained for mono-hydrolyzed TMC by the value obtained for Isopar L.
In the presence of tributylphosphate (TBP), the Isopar L value must be corrected since a few protons of TBP cannot be resolved from the Isopar L peaks. This is done by integrating the —OCH2-protons of TBP which are well resolved at ˜4.05 ppm, dividing this value by 6 (for 6 protons). This area value is then multiplied by 21 (represents the three —CH2CH2CH3 that are unresolved from the Isopar L peak) and subtracted from the peak area of Isopar L.

[1] = solvent Isopar L, 20° C. and 101 kPa

Structure (SMILES) | Solubility (solvent 80/20 Isopar L/Toluene + 0.25 wt % TBP) | Solubility (solvent 80/20 Isopar L/Toluene) | Solubility (solvent Isopar L + 1 wt % TEHP) | Solubility (solvent Isopar L + 1 wt % TEP) | Solubility [1] | Solubility (solvent Isopar L + 0.47 wt % TBP)
O=C(O)c1cc(C(=O)Cl)cc(C(=O)Cl)c1 [mhTMC, mono-hydrolyzed trimesoyl chloride] | 0.29 wt % | 0.05 wt % | 0.11 wt % | 0.2 wt % | 0.02 wt % | –
O=C(O)c1cccc(C(=O)Cl)c1 [mhIPC] | – | – | – | – | <0.02 wt % | 0.29 wt %
